Test results as given in patent publication US11632953B2, “Method for controlling hematophagous or sap-feeding arthropods” (Board of Supervisors of Louisiana State University and …, priority 2016, dated 2023).
Like-named read-outs stand apart in the source and are kept apart here.

What was measured:
[1] = tested on: isolated tick salivary gland; assay: fluid secretion (salivation) in the isolated tick salivary gland, modified Ramsay assay; design: species or system Amblyomma americanum; settings: for IC50: read-out: IC50 inhibition of salivation; for total salivation volume: control 150 nL/5 min
Aedes aegypti mosquitoes [2] = assay: saliva collection from live mosquito after injection; assay type: in vivo; settings: control 1.4 μL
Excerpt: We investigated the influence of Katp modulators on mosquito salivation and blood feeding. We employed an established assay to collect the saliva from a live mosquito.

Aedes aegypti mosquitoes [3] = assay: mosquito blood feeding with compound exposure; assay type: in vivo; settings: compound added to blood
Excerpt: Tolbutamide and glybenclamide are inhibitors of ATP-gated Kir channels.

Amblyomma americanum [4] = assay: tick blood feeding with compound included in the blood meal; assay type: in vivo; settings: for average detachments during blood feeding: control 0.11
Excerpt: All ticks were observed attempting to feed by including rhodamine B, a fluorescent tracer, in the blood meal.

[5] = tested on: isolated tick salivary gland; assay: ion secretion in saliva of the isolated tick salivary gland; design: species or system Amblyomma americanum
Amblyomma americanum [6] = assay: tick toxicity (compound in blood meal or injected); assay type: in vivo; settings: for mortality rate: in blood meal
Excerpt: A failure to osmoregulate during blood feeding would result in a buildup of ions at toxic concentrations into the hemocoel.

mosquitoes = settings: in vivo; cited from earlier work
mosquito Kin channels = settings: in vitro; cited from earlier work
Chickungunya virus = assay: infection of mosquitoes by virus after blood meal; settings: in vivo
[7] = tested on: sugar and bitter cells of mosquito mouthparts; assay: electrophysiological recordings of maxilla gustatory sensilla

Q: With `Cn1c(=O)c2c(ncn2Cc2ccc(C(C)(C)C)cc2)n(C)c1=O` [VU063] as the compound, how does the “effect on salivation in the isolated salivary gland” value [1] read?
A: eliminated salivation

Q: And the IC50 ([1]; 10 min of salivation)?
A: 772 nM

Q: What about the IC50 ([1]; 20 min of salivation) of the same compound?
A: 560 nM

Q: What about the IC50 ([1]; 30 min of salivation) of the same compound?
A: 410 nM

Q: What about the “effect of pre-exposure of the gland to ATP on inhibition of salivation” value ([1]; pre-exposure to ATP) of the same compound?
A: negated the inhibitory effect

Q: What about the secreted saliva volume (Aedes aegypti mosquitoes [2]) of the same compound?
A: 0.1 µL

Q: And the “reduction of total volume of blood consumed” value (Aedes aegypti mosquitoes [3])?
A: 99%

Q: And the tick body weights (Amblyomma americanum [4]; VU063 at 100 μM in blood meal)?
A: not statistically different from that of unfed ticks

Q: And the “volume of ingested blood” value (Amblyomma americanum [4]; compound in blood meal, VU063 at 100 μM)?
A: below the limits of detection

Q: What about the “average detachments during blood feeding” value (Amblyomma americanum [4]) of the same compound?
A: 3.6 times per feeding

Q: What about the “cations (K+ and Na+) concentrations excreted from the salivary glands” value [5] of the same compound?
A: significant reduction

Q: And the “pattern of mortality as a function of time compared with pinacidil” value (Amblyomma americanum [6]; exposed while feeding)?
A: nearly-identical pattern of mortality

Q: Which results are given for `CCC(=O)N1c2ccc(S(=O)(=O)Nc3cccc(OC)c3)cc2CC1C` (stereo not shown) [VU625]?
A: topical toxicity to mosquitoes (mosquitoes): not topically toxic; IC50 (mosquito Kin channels): ~100 nM

Q: With `CC(N=C(NC#N)Nc1ccncc1)C(C)(C)C` (racemic) [pinacidil, (±)-N-Cyano-N′-4-pyridinyl-N″-(1,2,2-trimethylpropyl)guanidine] as the compound, how does the total salivation volume ([1]; 600 μM pinacidil after pre-exposure to ATP) read?
A: 142 nL/5 min

Q: And the total salivation volume ([1]; 600 μM pinacidil)?
A: 40 nL/5 min

Q: What about the “Effect on Salivation at 10 minutes (reduction)” value ([1]; 10 minutes, isolated tick salivary gland) of the same compound?
A: Reduced ~98%

Q: What about the IC50 ([1]; Amblyomma americanum, 10 min, 10 min of salivation) of the same compound?
A: 320000 nM

Q: What about the IC50 ([1]; Amblyomma americanum, 20 min, 20 min of salivation) of the same compound?
A: 250000 nM

Q: And the IC50 ([1]; Amblyomma americanum, 0.5 h, 30 min of salivation)?
A: 120000 nM

Q: And the “reduction of salivary output / saliva secretion compared to control” value ([1]; isolated tick salivary gland)?
A: 97%

Q: And the secreted saliva volume (Aedes aegypti mosquitoes [2])?
A: 0.3 µL

Q: And the “infection of mosquitoes by the virus after feeding on a blood meal” value (Chickungunya virus)?
A: inhibited infection

Q: And the “response of gustatory sensilla cells” value [7]?
A: elicits a spike in the sugar and bitter cells

Q: And the “reduction of total volume of blood consumed” value (Aedes aegypti mosquitoes [3])?
A: 99%

Q: And the “reduction of volume of blood ingested” value (Amblyomma americanum [4]; 400 μM in blood meal, throughout the course of feeding)?
A: up to 15 fold

Q: What about the “average detachments during blood feeding” value (Amblyomma americanum [4]) of the same compound?
A: 2.1 times per feeding

Q: What about the “volume of blood ingested” value (Amblyomma americanum [4]; day 6 of feeding, 400 μM, control 16±4) of the same compound?
A: 1.2±0.3 μL per day

Q: And the “cations (K+ and Na+) concentrations excreted from the salivary glands” value [5]?
A: significant reduction

Q: What about the mortality rate (Amblyomma americanum [6]; day 1) of the same compound?
A: 65%

Q: And the mortality rate (Amblyomma americanum [6]; day 2)?
A: 72%

Q: And the mortality rate (Amblyomma americanum [6]; day 3)?
A: 88%

Q: What about the mortality rate (Amblyomma americanum [6]; day 4) of the same compound?
A: 94%

Q: And the mortality rate (Amblyomma americanum [6]; day 5)?
A: 99%
